The nature of data set [1]: Dynamic vapor sorption (DVS) system analysis (moisture adsorption-desorption test). The data set is classed as physicochemical. The settings on record: 25° C., 5% to 95% RH. As for the experimental part: Dynamic vapor sorption (DVS) system analysis was performed under the following conditions.
Device: VTI SGA-100, TA Instruments
Sample: about 10 mg Measurement temperature: 25° C. RH steps: 5-95-1% RH by 5% RH
Hygroscopic properties of crystals I and II obtained in the Examples were confirmed by dynamic vapor sorption (DVS) system analysis.
The adsorption and desorption data was collected at 5% RH intervals in a range of relative humidity (RH) of 5% to 95%. Before the measurement, the samples were heated under nitrogen purging to 25° C. at 1° C./min, followed by drying for up to 6 hours until the weight change in 5 minutes became less than 0.0100%. The measurement was performed with equilibration for up to 2 hours until the weight change in 5 minutes became less than 0.0100%.

Data set [2] in a line: Solid stability test (under exposure to light). As to conditions: for Change of crystal form (powder X-ray crystal analysis): room temperature, after irradiation at 3500000 lux·h (2000 lux×1750 h). The data set is classed as physicochemical. How it is done: Using crystals I and II obtained in the Examples, the solid stability after storage under exposure to light was measured.
Storage conditions: crystal I was stored at room temperature under exposure to light after being placed in a transparent glass dish covered with a lid. Measurement point: after irradiation at 3500000 lux·h (irradiation at 2000 lux×1750 h)
Storage Container: Transparent Glass Dish
The powder X-ray diffraction upon the storage stability test was measured after an appropriate amount of the test substance was lightly pulverized as necessary using an agate mortar under the following test conditions.
Device: MiniFlex II, Rigaku Corporation
X-ray output power: 15 mA, 30 kV Scanning range: 3.0 to 40.0° Step size: 0.010° Scanning speed: […]. Divergence slit: 1.25° Scatter slit: open Receiving slit: open

Data set [3] addresses hematopoietic prostaglandin D synthase (H-PGDS) (Homo sapiens, UniProt O60760). The settings on record: disclosed in Patent Document 1; cited from earlier work.
The nature of data set [4]: Solid stability test (40° C., under light shielding), chemical purity by HPLC. Format: physicochemical. How it is done:
Using crystal I obtained in the Examples, the solid stability after storage at 40° C. under light shielding was measured.
Storage conditions: crystal I was stored at 40° C. after being placed in a light shielding bottle covered with a lid. Measurement points: after 1 month, after 3 months, after 6 months
The amount of analog in the sample solution was measured by HPLC analysis. Handling of the device, including data processing, was performed in accordance with the method and procedures specified for each device (device: 2130-2450, HITACHI).
Column: Mightysil RP-18 GP 150-4.6 (5 μm)
UV detection: 220 nm Column temperature: 40° C. Column flow rate: 1.0 mL/min Mobile phase: A: acetonitrile, B: 10 mM phos. buffer

The values below come from patent publication US20180258069A1, “NEW CRYSTAL OF PIPERAZINE COMPOUND” (TAIHO PHARMACEUTICAL CO., LTD., priority 2015, published 2018).

Chain of hematopoietic prostaglandin D synthase (H-PGDS) (O60760 whole entry): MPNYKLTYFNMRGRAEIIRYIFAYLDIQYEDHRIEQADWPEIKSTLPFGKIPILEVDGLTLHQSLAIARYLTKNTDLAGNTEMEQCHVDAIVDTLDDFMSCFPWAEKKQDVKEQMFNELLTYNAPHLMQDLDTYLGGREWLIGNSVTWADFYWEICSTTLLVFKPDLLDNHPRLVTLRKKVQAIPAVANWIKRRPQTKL

Turning to `Cn1cccc1C(=O)N1CCN(C(=O)Nc2ccc(N3CCC(C(=O)N4CCOCC4)CC3)cc2)CC1` [crystal II, 4-((1-methylpyrrol-2-yl)-carbonyl)-N-(4-(4-morpholin-1-yl-carbonylpiperidin-1-yl)-phenyl)-1-piperazinecarboxamide], in data set [1], the “Change in weight due to changes in humidity” value was “great change in weight”; the “Powder X-ray crystal analysis before and after moisture adsorption and desorption” value was “not changed”. In data set [2], the “Chemical purity after long-term storage under exposure to light” value is “not decreased” and the “Change of crystal form (powder X-ray crystal analysis)” value is given as “changed”.
Turning to `Cn1cccc1C(=O)N1CCN(C(=O)Nc2ccc(N3CCC(C(=O)N4CCOCC4)CC3)cc2)CC1` [Compound (1), 4-((1-methylpyrrol-2-yl)-carbonyl)-N-(4-(4-morpholin-1-yl-carbonylpiperidin-1-yl)-phenyl)-1-piperazinecarboxamide], the H-PGDS inhibiting effect result in data set [3] is reported as “inhibiting effect”.
Take `Cn1cccc1C(=O)N1CCN(C(=O)Nc2ccc(N3CCC(C(=O)N4CCOCC4)CC3)cc2)CC1` [crystal I, monohydrate of 4-((1-methylpyrrol-2-yl)-carbonyl)-N-(4-(4-morpholin-1-yl-carbonylpiperidin-1-yl)-phenyl)-1-piperazinecarboxamide]: the “Change in weight due to changes in humidity” value in data set [1] is given as “no changes in weight”. Moreover, the “Powder X-ray crystal analysis before and after moisture adsorption and desorption” value in data set [1] was “not changed”. Besides, the “Chemical Purity (%)” value in data set [4] (After 1 month at 40° C. under light shielding) was 99.8%; in data set [4] (After 3 months at 40° C. under light shielding), 99.6%; in data set [4] (After 6 months at 40° C. under light shielding), 99.9%; in data set [4] (Initial Value, before storage), 99.8%. In data set [4] (storage at 40° C. under light shielding), the “Change of chemical purity after storage” value was “not changed”. For the same compound, the “Chemical purity after long-term storage under exposure to light” value in data set [2] was “not decreased”. The “Change of crystal form (powder X-ray crystal analysis)” value in data set [2] is “not changed”.
